Test results from paper PMC3445516 (PLoS ONE, 2012).
Read-outs that look alike come from different tables or passages of the source.

Key:
PKD1 [1] = test system: PKD1; design: method as in PMID 18829454, PMID 22267986, PMID 21617763, PMID 20444281, PMID 21998636; settings: cited from earlier work; for IC50: previous HTS assays; for inhibition of PKD1 in vitro: previous work
[2] = test system: PKD1 in LNCaP prostate cancer cells; design: method as in PMID 18829454, PMID 22267986, PMID 21617763, PMID 20444281, PMID 21998636; settings: cited from earlier work
[3] = target: T1, recombinant GST-tagged human protein kinase D1 (PKD1) (Homo sapiens, UniProt Q15139); assay: In vitro radiometric PKD1 kinase assay; assay type: biochemical; settings: for inhibition at 1 µM: read-out: Inhibition of PKD1
T1 construct: purchased Enzo Life sciences (Farmingdale, NY)
T1 sequence (Q15139 1-912): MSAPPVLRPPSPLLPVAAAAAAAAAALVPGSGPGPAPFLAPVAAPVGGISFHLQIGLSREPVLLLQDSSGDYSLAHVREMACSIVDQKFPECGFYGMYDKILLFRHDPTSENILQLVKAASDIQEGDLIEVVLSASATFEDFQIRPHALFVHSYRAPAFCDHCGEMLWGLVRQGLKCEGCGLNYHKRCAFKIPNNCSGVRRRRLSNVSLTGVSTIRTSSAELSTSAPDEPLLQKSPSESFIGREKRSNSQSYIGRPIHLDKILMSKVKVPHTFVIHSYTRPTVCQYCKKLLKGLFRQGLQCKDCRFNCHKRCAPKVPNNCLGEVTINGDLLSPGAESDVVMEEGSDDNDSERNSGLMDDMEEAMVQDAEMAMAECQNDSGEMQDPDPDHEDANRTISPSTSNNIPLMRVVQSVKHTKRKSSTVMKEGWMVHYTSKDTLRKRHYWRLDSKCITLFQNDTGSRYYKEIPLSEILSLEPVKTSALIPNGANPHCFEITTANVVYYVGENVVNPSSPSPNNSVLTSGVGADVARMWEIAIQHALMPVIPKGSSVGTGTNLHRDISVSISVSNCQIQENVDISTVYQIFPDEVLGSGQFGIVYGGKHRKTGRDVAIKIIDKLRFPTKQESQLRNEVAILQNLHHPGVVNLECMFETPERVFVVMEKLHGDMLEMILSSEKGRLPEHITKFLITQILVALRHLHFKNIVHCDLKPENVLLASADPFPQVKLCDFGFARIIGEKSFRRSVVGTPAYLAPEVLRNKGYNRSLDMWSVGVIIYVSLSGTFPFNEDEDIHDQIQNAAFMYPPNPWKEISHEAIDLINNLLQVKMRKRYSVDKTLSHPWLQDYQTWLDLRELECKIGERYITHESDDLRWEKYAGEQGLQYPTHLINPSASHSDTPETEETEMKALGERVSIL
Procedure: All compounds were given distinct UPCMLD (University of Pittsburgh Center for Chemical Methodologies and Library Development) IDs and were then assigned numerical IDs for convenient data display. Evaluation of each compound was carried out in triplicate at a single concentration (1 µM). Our previously described PKD1 inhibitor, kb-NB142-70, and DMSO (solvent alone) were used as positive and negative controls, respectively. Percent residual kinase activity was calculated based on that of the negative control (DMSO).
Kinase active recombinant GST-tagged human protein kinase D1 (PKD1) was obtained from Enzo Life sciences (Farmingdale, NY). DMSO was purchased from Sigma. Recombinant PKCα, PKCδ and CAMKIIα were obtained from SignalChem (Richmond, BC, Canada). ATP was purchased from Fisher Scientific. HDAC5 substrate peptide was synthesized by Biobasic Canada Inc. (Markham, ON). Myelin basic protein 4–14 was purchased from AnaSpec Inc. (Fremont, CA). The targeted kinase inhibitor library was obtained from Hoffmann-La Roche, Inc.
1.2 µg of HDAC-5 was used as substrate in the reaction. Phosphorylation of HDAC5 was detected in a kinase reaction having 1 µCi [γ-^32P] […] The reaction was incubated at 30° for 10 minutes and 25 µL of the reaction was spotted on Whatman P81 filter paper. The filter paper was washed 3 times in 0.5% phosphoric acid, air dried and counted using Beckman LS6500 multipurpose scintillation counter. Percent PKD1 inhibition was graphed using GraphPad Prism software 5.0.

p38δ = p38δ (Homo sapiens, UniProt O15264); assay: In vitro radiometric p38 kinase assay; assay type: biochemical
Procedure: To confirm that p38 was indeed a target of the 4-azaindole, the inhibition of p38 by the twenty-eight PKD1 inhibitors was evaluated using an in vitro radiometric p38 kinase assay. […] Taken together, our data has identified a novel PKD1 inhibitor scaffold that is active for p38α, but not for PKC, CAMK and p38δ.
Phosphorylation of 3.5 µg of p38 substrate was detected in a reaction having 1 µCi [γ-^32P] ATP (Perkin Elmer Life Sciences), 50 µM ATP, 50 ng active recombinant p38 in 50 µL kinase buffer containing 25 mM Tris-HCl, pH 7.5, 10 mM MgCl2, 5 mM β-glycerophosphate, 0.1 mM Na3VO4 and 2 mM DTT. The reaction was incubated at 30°C for 10 minutes and 25 µL of the reaction was spotted on Whatman P81 filter paper. The filter paper was washed 3 times in 0.5% phosphoric acid, air dried and counted using Beckman LS6500 multipurpose scintillation counter. Percent p38 inhibition was graphed using GraphPad Prism software 5.0.

PKCδ = PKCδ (Homo sapiens, UniProt Q05655); assay: In vitro radiometric PKC kinase assay; assay type: biochemical; design: purchased SignalChem (Richmond, BC, Canada); settings: read-out: inhibition of PKCδ
Procedure: In this study, we counter-screened the twenty-eight PKD1 inhibitory agents for inhibition of PKCα, PKCδ and CAMKIIα in order to get an initial profile for the potential PKD selectivity, since these are the functionally most closely related kinases. The compounds were examined at 0.1, 1 and 10 µM concentration. […] Next, the inhibitory activity for CAMKIIα was examined.
The PKC kinase assay was carried out by co-incubating 1 µCi [γ-^32P]ATP, 20 µM ATP, 50 ng of purified PKCα or PKCδ and 5 µg of myelin basic protein 4–14, 0.25 mg/mL bovine serum albumin, 0.1 mg/mL phosphatidylcholine/phosphatidylserine (80/20%) (1 µM), 1 µM phorbol dibutyrate in 50 µL of kinase buffer containing 50 mM Tris-HCl, pH 7.5, 4 mM MgCl2 and 10 mM β-mercaptoethanol. For the CAMK assay, 50 ng of CAMK and 2 µg Syntide-2 substrate in 50 µL kinase buffer were incubated with 0.1 mM MgCl2, 1 µCi of [γ-^32P] ATP, 70 µM ATP. 0.5 mM CaCl2 and 30 ng/µL calmodulin were preincubated for 15 min on ice and then added in the kinase reaction. The reactions were incubated at 30°C for 10 minutes and 25 µL of the reaction was spotted on Whatman P81 filter paper. The filter paper was washed 3 times in 0.5% phosphoric acid, air dried and counted using Beckman LS6500 multipurpose scintillation counter.

[4] = target: T2, endogenous PKD1 in LNCaP prostate cancer cells (Homo sapiens, UniProt Q15139); assay: PMA-induced activation of PKD1 in LNCaP cells (immunoblot pS916 / pS744/748); assay type: cell-based; settings: PMA 10 nM
T2 construct: endogenous in cells; host or cells: LNCaP prostate cancer cells
T2 sequence (Q15139 1-912): T1 sequence (Q15139 1-912)
Procedure: (§1) PMA induces PKC-dependent phosphorylation of Ser744/748 (S^744/748) in the activation loop followed by autophosphorylation of PKD1 on Ser916 (S^916) in the C-terminus, [31]. The catalytic activity of PKD1 correlates well with the level of phosphorylation at S^916 [31].
(§2) Figure 5 In vitro IC50, cellular activity, and mode of action of representative compounds. […] IC50 values were calculated based on the dose-response curve. Data are represented as mean ± SEM of 3 independent experiments. […] Cell lysates were subjected to immunoblotting for pS^916-PKD1 and pS^744/748-PKD1. Tubulin was blotted as loading control. The experiments were repeated three times and representative blots are shown. C.

PKD1 [5] = target: T3, PKD1 (Homo sapiens, UniProt Q15139); assay: Kinetic analysis, Lineweaver-Burk plots (ATP competition); assay type: biochemical
T3 construct: purchased Enzo Life sciences (Farmingdale, NY)
Procedure: as §1, §2

[6] = 1 µM, triplicate determinations

Sequence of PKCδ (Q05655 whole entry): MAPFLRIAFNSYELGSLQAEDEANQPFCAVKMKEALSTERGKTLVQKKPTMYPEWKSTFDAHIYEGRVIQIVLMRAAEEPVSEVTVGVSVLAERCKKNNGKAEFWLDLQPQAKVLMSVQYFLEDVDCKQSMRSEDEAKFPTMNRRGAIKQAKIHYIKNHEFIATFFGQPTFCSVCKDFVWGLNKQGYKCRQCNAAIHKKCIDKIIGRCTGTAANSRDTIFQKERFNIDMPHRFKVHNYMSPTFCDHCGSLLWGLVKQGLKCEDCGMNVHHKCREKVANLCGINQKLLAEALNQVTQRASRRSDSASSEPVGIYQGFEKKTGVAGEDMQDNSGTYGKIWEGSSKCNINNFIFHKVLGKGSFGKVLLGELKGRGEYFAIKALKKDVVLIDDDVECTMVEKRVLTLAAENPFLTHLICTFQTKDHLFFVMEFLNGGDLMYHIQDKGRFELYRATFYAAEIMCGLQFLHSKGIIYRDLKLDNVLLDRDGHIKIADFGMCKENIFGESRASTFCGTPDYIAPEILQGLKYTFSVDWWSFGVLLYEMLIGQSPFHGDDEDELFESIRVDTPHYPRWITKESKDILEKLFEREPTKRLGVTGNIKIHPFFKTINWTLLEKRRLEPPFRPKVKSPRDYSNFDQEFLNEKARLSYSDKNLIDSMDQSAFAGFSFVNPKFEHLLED
Sequence of p38δ (O15264 whole entry): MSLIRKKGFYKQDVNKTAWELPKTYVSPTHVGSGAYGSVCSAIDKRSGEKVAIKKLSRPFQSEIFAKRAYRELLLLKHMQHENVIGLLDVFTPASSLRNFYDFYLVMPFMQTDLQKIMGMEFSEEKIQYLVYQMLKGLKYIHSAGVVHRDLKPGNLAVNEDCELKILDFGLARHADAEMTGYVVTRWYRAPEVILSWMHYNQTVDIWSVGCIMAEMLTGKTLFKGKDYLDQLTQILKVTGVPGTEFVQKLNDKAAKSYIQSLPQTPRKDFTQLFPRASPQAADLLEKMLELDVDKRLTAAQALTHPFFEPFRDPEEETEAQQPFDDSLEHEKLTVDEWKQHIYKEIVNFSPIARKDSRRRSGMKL

SMILES: O=C1NCCCc2c1oc1ccc(O)cc21 [CID755673]
- IC50 (PKD1 [1]): 182 nM
- inhibition of PKD1 in vitro (PKD1 [1]): low nanomolar range
- suppression of PKD1 autophosphorylation at Ser916 [2]: low micromolar range

SMILES: CCN1/C(=C/C(C)=O)Sc2ccc(OC)cc21 [CID1893668]
- IC50 (PKD1 [1]): 1700 nM
- inhibition of phorbol ester-induced endogenous PKD1 activation [2]: in a concentration-dependent manner

SMILES: O=C(Nc1ccc(CN2CCOCC2)cc1)c1ccc(-c2cccc(Cl)c2)o1 [CID2011756]
- IC50 (PKD1 [1]): 3200 nM
- inhibition of phorbol ester-induced endogenous PKD1 activation [2]: in a concentration-dependent manner

SMILES: Cc1cc(NCCCN)nc(-c2ccccc2O)n1 [CID5389142]
- IC50 (PKD1 [1]): 1500 nM
- inhibition of phorbol ester-induced endogenous PKD1 activation [2]: in a concentration-dependent manner

SMILES: O=C1Nc2ccc(F)cc2/C1=C/c1ccc[nH]1 [Compound 4]
- inhibition at 1 µM [3, 6]: 57%

SMILES: COc1cc[nH]c1/C=C1\C(=O)Nc2ccccc21 [Compound 5]
- inhibition at 1 µM [3, 6]: 55%

SMILES: CNCC#Cc1c(F)ccc2c1/C(=C/c1[nH]ccc1OC)C(=O)N2 [Compound 11]
- inhibition at 1 µM [3]: 94%

SMILES: COc1cc[nH]c1/C=C1\C(=O)Nc2ccc(F)c(C#CC3(O)CCOCC3)c21 [Compound 13]
- inhibition at 1 µM [3, 6]: 80%

SMILES: COc1cc[nH]c1/C=C1\C(=O)Nc2ccc(F)c(C#CC3(O)CCNCC3)c21 [Compound 15]
- inhibition at 1 µM (p38δ): ≥ 50%
- inhibition at 1 µM [3, 6]: 97%

SMILES: CN[C@H](C#Cc1c(F)ccc2c1/C(=C/c1[nH]ccc1OC)C(=O)N2)CO [Compound 16]
- inhibition at 1 µM [3, 6]: 95%

SMILES: COc1cc[nH]c1C=C1C(=O)Nc2ccc(F)c(C#CC(O)C(N)C(C)O)c21 (centres unmarked) [Compound 17]
- inhibition at 1 µM [3, 6]: 97%

SMILES: Cn1cc(C2=C(c3cccc4ccccc34)C(=O)NC2=O)c2ccccc21 [Compound 25]
- inhibition at 1 µM [3, 6]: 54%

SMILES: CSc1c(C2=C(c3cn(C)c4ccccc34)C(=O)NC2=O)c2ccccc2n1C [Compound 30]
- inhibition at 1 µM [3, 6]: 65%

SMILES: Cn1cc(C2=C(c3cn(CCCO)c4ccccc34)C(=O)NC2=O)c2ccccc21 [Compound 34]
- inhibition at 1 µM [3, 6]: 65%

SMILES: COc1ccc(O)c(C(=O)c2ccc(C(=O)O[C@@H]3CCCNC[C@H]3NC(=O)c3ccncc3)cc2)c1F [Compound 100]
- inhibition at 1 µM [3]: 77%

SMILES: O=C1Nc2ccc(F)c3c(OCCO)cc(-c4ccc[nH]4)c1c23 [Compound 101]
- inhibition at 10 µM (PKCδ): ~50%
- inhibition at 1 µM [3]: 86%

SMILES: COc1cc[nH]c1/C=C1\C(=O)Nc2ccc([N+](=O)[O-])c(N3CC[C@@H](O)C3)c21 [Compound 102]
- inhibition at 1 µM [3, 6]: 93%

SMILES: COc1cccc(C(=O)c2sc(Nc3ccc(N4CCN(C(C)C)CC4)cc3)nc2N)c1 [Compound 104]
- inhibition at 10 µM (PKCδ): ~50%
- inhibition at 1 µM [3]: 65%

SMILES: Fc1ccc(-c2c(-c3ccncc3)[nH]c3cccnc23)cc1 [Compound 116]
- inhibition at 10 µM (PKCδ): ~70%
- inhibition at 1 µM [3]: 86%

SMILES: Cn1c(-c2ccncc2)c(-c2ccc(F)cc2)c2ncccc21 [Compound 121]
- inhibition at 1 µM [3]: 55%

SMILES: OCCn1c(-c2ccncc2)c(-c2ccc(F)cc2)c2ncccc21 [Compound 123]
- inhibition at 1 µM [3, 6]: 58%

SMILES: Cc1cc(C)c2c(n1)sc1c(N)ncnc12 [Compound 172]
- inhibition at 10 µM (PKCδ; 10 µM): ~50%
- inhibition at 1 µM [3, 6]: 62%

SMILES: COc1ccc(O)c(C(=O)c2ccc(C(=O)N[C@@H]3CCCNC[C@H]3NC(=O)c3ccncc3)cc2)c1F [Compound 175]
- inhibition at 1 µM [3]: 78%

SMILES: O=C1N=C(NCc2ccccc2)S/C1=C\c1ccc2ncccc2c1 [Compound 178]
- inhibition at 10 µM (PKCδ; 10 µM): ~50%
- inhibition at 1 µM [3, 6]: 55%

SMILES: O=C1N=C(N[C@H](CO)Cc2ccccc2)S/C1=C\c1ccc2ncccc2c1 [Compound 190]
- inhibition at 10 µM (PKCδ; 10 µM): ~70%
- inhibition at 1 µM [3, 6]: 49%

SMILES: O=C1N=C(N[C@@H](CO)Cc2ccccc2)S/C1=C\c1ccc2ncccc2c1 [Compound 198]
- inhibition at 1 µM (p38δ): ≥ 50%
- inhibition at 10 µM (PKCδ; 10 µM): ~70%
- inhibition at 1 µM [3, 6]: 62%

SMILES: O=C1N=C(N[C@H](CO)c2ccccc2)S/C1=C\c1ccc2ncccc2c1 [Compound 203]
- inhibition at 1 µM [3, 6]: 85%

SMILES: NC1=NC(=O)/C(=C/c2ccc3ncccc3c2)S1 [Compound 205]
- inhibition at 1 µM [3, 6]: 82%

SMILES: CNC1=NC(=O)/C(=C/c2ccc3ncccc3c2)S1 [Compound 209]
- effect on PKC-induced transphosphorylation at S744/748 [4]: did not affect
- IC50 ([4]; densitometry of pS916-PKD1 levels, read-out: cellular IC50 for inhibition of PKD1): 18200 nM
- inhibition at 1 µM [3, 6]: 64%
- IC50 ([3]; dose-response, mean ± SEM of 3 independent experiments): 562 nM
- mode of inhibition with respect to ATP (PKD1 [5]): competitive with respect to ATP

SMILES: O=C1NCCSc2c1sc1ccc(O)cc21 [kb-NB142-70]
- IC50 (PKD1 [1]): 28.3 nM
- inhibition of PKD1 in vitro (PKD1 [1]): low nanomolar range
- suppression of PKD1 autophosphorylation at Ser916 [2]: low micromolar range
